According to ChEMBL document CHEMBL3774337, “In vivo phase II-enzymes inducers, as potential chemopreventive agents, based on the chalcone and furoxan skeletons” (Bioorg Med Chem, 2016):
The source made the active and inactive calls. The calls are words filed in the database; no cut-off is given here.

Species: Mus musculus
Test: Ratio of quinone reductase specific activity in mouse Hepa1c1c7 cells to quinone reductase specific activity in mouse mutant BpRc1 cells
Type: cell-based
Conditions: not given
Compound `O=c1cc(-c2ccc(Br)cc2)oc2ccccc12` has a Ratio of 2.99.
With `Cc1c(/C=C/C(=O)c2ccc3ccccc3c2)no[n+]1[O-]` the Ratio was 1.5.
Work on `O=C(/C=C/c1c(-c2ccccc2)no[n+]1[O-])c1ccccc1` yielded a Ratio of 1.2.
For `O=C(/C=C/c1c(-c2ccccc2)no[n+]1[O-])c1ccccc1O`, the Ratio was 1.65.

System: Rattus norvegicus
Test: Toxicity in Wistar rat assessed as change in behaviors at 15 mg/kg/day, po for two weeks
Type: organism-based
Conditions: in vivo
For `O=C(/C=C/c1c(-c2ccccc2)no[n+]1[O-])c1ccccc1`, the Activity was “Non-toxic”.
With `O=C(/C=C/c1c(-c2ccccc2)no[n+]1[O-])c1ccccc1O` the Activity was “Non-toxic”.

System: Rattus norvegicus
Test: Induction of glutathione S-transferase activity in cytosolic fraction of Wistar rat colon at 15 mg/kg/day, po for two weeks using CDNB as substrate measured for 1 min relative to control
Type: functional
Conditions: not given
With `O=C(/C=C/c1c(-c2ccccc2)no[n+]1[O-])c1ccccc1` the Activity was 13%.
For `O=C(/C=C/c1c(-c2ccccc2)no[n+]1[O-])c1ccccc1O`, the Activity was “Active”.

System: Rattus norvegicus
Test: Toxicity in Wistar rat assessed as change in body weight at 15 mg/kg/day, po for two weeks
Type: organism-based
Conditions: in vivo
With `O=C(/C=C/c1c(-c2ccccc2)no[n+]1[O-])c1ccccc1` the Activity was “Non-toxic”.
With `O=C(/C=C/c1c(-c2ccccc2)no[n+]1[O-])c1ccccc1O` the Activity was “Non-toxic”.

System: not listed separately
Test: Cytotoxicity against mouse mutant BpRc1 cells after 48 hrs by SRB assay
Type: cell-based
Conditions: BPrc1, 48 h
Work on `O=c1cc(-c2ccc(Br)cc2)oc2ccccc12` yielded an IC50 of 150 µM.
In the case of `O=C(/C=C/c1c(-c2ccccc2)no[n+]1[O-])c1ccccc1`, the IC50 is reported as 38 µM.
Work on `O=C(/C=C/c1c(-c2ccccc2)no[n+]1[O-])c1ccccc1O` yielded an IC50 of 38 µM.

System: Rattus norvegicus
Test: Induction of glutathione S-transferase activity in cytosolic fraction of Wistar rat liver at 15 mg/kg/day, po for two weeks using CDNB as substrate measured for 1 min relative to control
Type: functional
Conditions: not given
`O=C(/C=C/c1c(-c2ccccc2)no[n+]1[O-])c1ccccc1` showed an Activity of 180%.
In the case of `O=C(/C=C/c1c(-c2ccccc2)no[n+]1[O-])c1ccccc1O`, the Activity is reported as 110%.

Molecular target: T1, Nuclear factor erythroid 2-related factor 2 (Mus musculus) (UniProt Q60795)
T1 sequence (whole entry): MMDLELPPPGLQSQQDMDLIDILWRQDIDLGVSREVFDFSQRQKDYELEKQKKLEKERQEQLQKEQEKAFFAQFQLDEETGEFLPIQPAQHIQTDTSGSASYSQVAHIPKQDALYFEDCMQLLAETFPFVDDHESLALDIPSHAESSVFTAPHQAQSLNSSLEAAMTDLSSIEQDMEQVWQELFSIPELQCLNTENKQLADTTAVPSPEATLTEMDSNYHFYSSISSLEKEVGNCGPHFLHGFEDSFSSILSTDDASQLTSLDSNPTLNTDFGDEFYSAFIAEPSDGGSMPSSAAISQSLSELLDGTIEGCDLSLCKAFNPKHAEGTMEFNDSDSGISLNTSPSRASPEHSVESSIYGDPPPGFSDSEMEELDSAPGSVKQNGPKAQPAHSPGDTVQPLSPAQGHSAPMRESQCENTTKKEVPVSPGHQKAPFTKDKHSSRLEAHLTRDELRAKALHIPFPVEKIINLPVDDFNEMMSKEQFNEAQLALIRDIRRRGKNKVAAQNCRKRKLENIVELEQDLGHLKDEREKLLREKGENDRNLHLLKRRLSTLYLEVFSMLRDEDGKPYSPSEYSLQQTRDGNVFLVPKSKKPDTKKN
Test: Induction of Nrf2 nuclear translocation in mouse Hepa1c1c7 cells assessed as protein accumulation in nucleus at 20 uM by DAPI staining based immunofluorescence assay
Type: cell-based
Conditions: not given
For `O=C(/C=C/c1c(-c2ccccc2)no[n+]1[O-])c1ccccc1`, the Activity was “Active”.
For `O=C(/C=C/c1c(-c2ccccc2)no[n+]1[O-])c1ccccc1O`, the Activity was “Active”.

Species: Mus musculus
Test: Induction of quinone reductase specific activity in mouse mutant BpRc1 cells expressing defective translocator receptor Arnt using 2,6-DCIP as substrate at 10 uM measured for 1 min relative to control
Type: cell-based
Conditions: not given
Work on `O=c1cc(-c2ccc(Br)cc2)oc2ccccc12` yielded a fold change (FC) of 1.49.
With `Cc1c(/C=C/C(=O)c2ccc3ccccc3c2)no[n+]1[O-]` the fold change (FC) was 0.99.
`O=C(/C=C/c1c(-c2ccccc2)no[n+]1[O-])c1ccccc1` showed a fold change (FC) of 1.58.
Compound `O=C(/C=C/c1c(-c2ccccc2)no[n+]1[O-])c1ccccc1O` has a fold change (FC) of 1.82.

System: Rattus norvegicus
Test: Induction of CYP450 activity in microsomal fraction of Wistar rat liver at 15 mg/kg/day, po for two weeks using 7-ethoxyresorufine as substrate measured for 5 mins relative to control
Type: ADME, organism-based
Conditions: in vivo
Compound `O=C(/C=C/c1c(-c2ccccc2)no[n+]1[O-])c1ccccc1` has an Activity of 60%.
Work on `O=C(/C=C/c1c(-c2ccccc2)no[n+]1[O-])c1ccccc1O` yielded an Activity of 40%.

System: not listed separately
Test: Chemoprotective index, ratio of IC50 for mouse Hepa1c1c7 cells to CD for quinone reductase activity in mouse Hepa1c1c7 cells
Conditions: not given
Work on `O=c1cc(-c2ccc(Br)cc2)oc2ccccc12` yielded a Ratio of 107.
With `O=C(/C=C/c1c(-c2ccccc2)no[n+]1[O-])c1ccccc1` the Ratio was 3.
In the case of `O=C(/C=C/c1c(-c2ccccc2)no[n+]1[O-])c1ccccc1O`, the Ratio is reported as 5.

System: Rattus norvegicus
Test: Induction of quinone reductase activity in cytosolic fraction of Wistar rat colon at 15 mg/kg/day, po for two weeks using 2,6-DCIP as substrate at 10 uM measured for 1 min relative to control
Type: functional
Conditions: not given
Work on `O=C(/C=C/c1c(-c2ccccc2)no[n+]1[O-])c1ccccc1` yielded an Activity of 12%.
For `O=C(/C=C/c1c(-c2ccccc2)no[n+]1[O-])c1ccccc1O`, the Activity was “Active”.

System: not listed separately
Test: Cytotoxicity against mouse Hepa1c1c7 cells after 48 hrs by SRB assay
Type: cell-based
Conditions: Hepa-1c1c7, 48 h
With `O=c1cc(-c2ccc(Br)cc2)oc2ccccc12` the IC50 was 85 µM.
`O=C(/C=C/c1c(-c2ccccc2)no[n+]1[O-])c1ccccc1` gave an IC50 of 36 µM.
`O=C(/C=C/c1c(-c2ccccc2)no[n+]1[O-])c1ccccc1O` showed an IC50 of 40 µM.

Species: Mus musculus
Test: Induction of quinone reductase activity in mouse mutant BpRc1 cells using 2,6-DCIP as substrate measured for 1 min
Type: cell-based
Conditions: not given
`O=c1cc(-c2ccc(Br)cc2)oc2ccccc12` gave a CD of 80 µM.
`O=C(/C=C/c1c(-c2ccccc2)no[n+]1[O-])c1ccccc1` showed a CD of 13 µM.
`O=C(/C=C/c1c(-c2ccccc2)no[n+]1[O-])c1ccccc1O` showed a CD of 12 µM.

System: Salmonella typhimurium
Test: Mutagenicity in Salmonella typhimurium TA98 assessed as revertant colonies at 5 to 400 ug/plate by Ames test in absence of mouse liver S9 fraction
Type: toxicity, organism-based
Conditions: salmonella enterica subsp. enterica serovar typhimurium
In the case of `O=C(/C=C/c1c(-c2ccccc2)no[n+]1[O-])c1ccccc1`, the Activity is reported as “Non-toxic”.

Species: Mus musculus
Test: Induction of quinone reductase specific activity in mouse Hepa1c1c7 cells assessed as concentration required to double enzyme specific activity using 2,6-DCIP as substrate measured for 1 min
Type: cell-based
Conditions: not given
`O=c1cc(-c2ccc(Br)cc2)oc2ccccc12` gave a CD of 0.79 µM.
`O=C(/C=C/c1c(-c2ccccc2)no[n+]1[O-])c1ccccc1` showed a CD of 12 µM.
`O=C(/C=C/c1c(-c2ccccc2)no[n+]1[O-])c1ccccc1O` gave a CD of 8 µM.

System: Salmonella typhimurium
Test: Mutagenicity in Salmonella typhimurium TA98 assessed as revertant colonies at 0.5 to 40 ug/plate by Ames test in presence of mouse liver S9 fraction
Type: toxicity, organism-based
Conditions: salmonella enterica subsp. enterica serovar typhimurium
In the case of `O=C(/C=C/c1c(-c2ccccc2)no[n+]1[O-])c1ccccc1O`, the Activity is reported as “Non-toxic”.

System: not listed separately
Test: Toxicity in Wistar rat assessed as survival at 15 mg/kg/day, po for two weeks
Type: organism-based
Conditions: in vivo
For `O=C(/C=C/c1c(-c2ccccc2)no[n+]1[O-])c1ccccc1`, the survival at 2 weeks was 100%.
`O=C(/C=C/c1c(-c2ccccc2)no[n+]1[O-])c1ccccc1O` gave a survival at 2 weeks of 100%.

System: HT-29
Test: Cytotoxicity against human HT-29 cells at 100 uM after 24 hrs by SRB assay
Type: functional, cell-based
Conditions: not given
For `Cc1c(/C=C/C(=O)c2ccc3ccccc3c2)no[n+]1[O-]`, the Activity was “Active”.
For `O=C(/C=C/c1c(-c2ccccc2)no[n+]1[O-])c1ccccc1`, the Activity was “Active”.
For `O=C(/C=C/c1c(-c2ccccc2)no[n+]1[O-])c1ccccc1O`, the Activity was “Active”.

System: Salmonella typhimurium
Test: Mutagenicity in Salmonella typhimurium TA98 assessed as revertant colonies at 0.5 to 40 ug/plate by Ames test in absence of mouse liver S9 fraction
Type: toxicity, organism-based
Conditions: salmonella enterica subsp. enterica serovar typhimurium
With `O=C(/C=C/c1c(-c2ccccc2)no[n+]1[O-])c1ccccc1O` the Activity was “Non-toxic”.

System: MCF7
Test: Cytotoxicity against human MCF7 cells at 100 uM after 24 hrs by SRB assay
Type: functional, cell-based
Conditions: not given
With `Cc1c(/C=C/C(=O)c2ccc3ccccc3c2)no[n+]1[O-]` the Activity was “Active”.
For `O=C(/C=C/c1c(-c2ccccc2)no[n+]1[O-])c1ccccc1`, the Activity was “Active”.
With `O=C(/C=C/c1c(-c2ccccc2)no[n+]1[O-])c1ccccc1O` the Activity was “Active”.

System: Salmonella typhimurium
Test: Mutagenicity in Salmonella typhimurium TA98 assessed as revertant colonies at 5 to 400 ug/plate by Ames test in presence of mouse liver S9 fraction
Type: toxicity, organism-based
Conditions: salmonella enterica subsp. enterica serovar typhimurium
With `O=C(/C=C/c1c(-c2ccccc2)no[n+]1[O-])c1ccccc1` the Activity was “Non-toxic”.

System: Salmonella typhimurium
Test: Mutagenicity in Salmonella typhimurium TA98 assessed as revertant colonies at 6 to 500 ug/plate by Ames test in presence of mouse liver S9 fraction
Type: toxicity, organism-based
Conditions: salmonella enterica subsp. enterica serovar typhimurium
For `Cc1c(/C=C/C(=O)c2ccc3ccccc3c2)no[n+]1[O-]`, the Activity was “Non-toxic”.

System: Salmonella typhimurium
Test: Mutagenicity in Salmonella typhimurium TA98 assessed as revertant colonies at 6 to 500 ug/plate by Ames test in absence of mouse liver S9 fraction
Type: toxicity, organism-based
Conditions: salmonella enterica subsp. enterica serovar typhimurium
For `Cc1c(/C=C/C(=O)c2ccc3ccccc3c2)no[n+]1[O-]`, the Activity was “Non-toxic”.

System: Rattus norvegicus
Test: Induction of CYP450 activity in microsomal fraction of Wistar rat colon at 15 mg/kg/day, po for two weeks using 7-ethoxyresorufine as substrate measured for 5 mins
Type: ADME, organism-based
Conditions: in vivo
For `O=C(/C=C/c1c(-c2ccccc2)no[n+]1[O-])c1ccccc1`, the Activity was “Not Active”.
In the case of `O=C(/C=C/c1c(-c2ccccc2)no[n+]1[O-])c1ccccc1O`, the Activity is reported as “Active”.

Species: Mus musculus
Test: Induction of quinone reductase specific activity in mouse Hepa1c1c7 cells using 2,6-DCIP as substrate at 10 uM measured for 1 min relative to control
Type: cell-based
Conditions: not given
`O=c1cc(-c2ccc(Br)cc2)oc2ccccc12` gave a fold change (FC) of 4.45.
Work on `Cc1c(/C=C/C(=O)c2ccc3ccccc3c2)no[n+]1[O-]` yielded a fold change (FC) of 1.49.
Compound `O=C(/C=C/c1c(-c2ccccc2)no[n+]1[O-])c1ccccc1` has a fold change (FC) of 1.9.
Compound `O=C(/C=C/c1c(-c2ccccc2)no[n+]1[O-])c1ccccc1O` has a fold change (FC) of 3.01.

System: Rattus norvegicus
Test: Induction of quinone reductase activity in cytosolic fraction of Wistar rat liver at 15 mg/kg/day, po for two weeks using 2,6-DCIP as substrate measured for 1 min relative to control
Type: functional
Conditions: not given
In the case of `O=C(/C=C/c1c(-c2ccccc2)no[n+]1[O-])c1ccccc1`, the Activity is reported as 110%.
`O=C(/C=C/c1c(-c2ccccc2)no[n+]1[O-])c1ccccc1O` gave an Activity of 80%.

Species: Mus musculus
Test: Ratio of induction of quinone reductase specific activity in mouse mutant BpRc1 cells to mouse Hepa1c1c7 cells
Type: cell-based
Conditions: not given
`O=c1cc(-c2ccc(Br)cc2)oc2ccccc12` showed a Ratio of 100.
Work on `O=C(/C=C/c1c(-c2ccccc2)no[n+]1[O-])c1ccccc1` yielded a Ratio of 1.1.
For `O=C(/C=C/c1c(-c2ccccc2)no[n+]1[O-])c1ccccc1O`, the Ratio was 1.5.

System: not listed separately
Test: Chemoprotective index, ratio of IC50 for mouse mutant BpRc1 cells to CD for quinone reductase activity in mouse mutant BpRc1 cells
Conditions: not given
With `O=c1cc(-c2ccc(Br)cc2)oc2ccccc12` the Ratio was 1.9.
`O=C(/C=C/c1c(-c2ccccc2)no[n+]1[O-])c1ccccc1` gave a Ratio of 2.9.
`O=C(/C=C/c1c(-c2ccccc2)no[n+]1[O-])c1ccccc1O` showed a Ratio of 3.2.
